Data taken from patent US6498247B2, “Alkali or alkaline earth metal of n-butyric acid for treatment of cognitive and emotional conditions” (Pro-Health, Inc., priority 2000, dated 2002).

Test: Case report: subject, under treatment for uneasiness, short temper and prolonged anger
Type: in vivo, human
Details: while taking welbutrin, before the butyrate
From the text: A subject was under treatment for uneasiness, short temper and prolonged anger, and was taking welbutrin.

CC(NC(C)(C)C)C(=O)c1cccc(Cl)c1 (stereo not shown) [welbutrin, 1-(3-chlorophenyl)-2-[(1,1-dimethylethyl)amino]-1-propanone]
side effects suffered under prior treatment: stomach discomfort, memory deficiency and reduced clarity of thought
